Assay results: ChEMBL document CHEMBL3046091, “Synthesis and antimicrobial activities of 2-azetidinyl-4-quinazolinone derivatives of diclofenac analogue” (2011)

Experiments:
Assay type in all cases: functional
[1] = test system: Pseudomonas aeruginosa; assay: Antibacterial activity against Pseudomonas aeruginosa ATCC 9027 at 50 ug/ml by cup-plate method; settings: read-out: IZ
[2] = test system: Pseudomonas aeruginosa; assay: Antibacterial activity against Pseudomonas aeruginosa ATCC 9027 at 50 to 100 ug/ml by cup-plate method
[3] = test system: Pseudomonas aeruginosa; assay: Antibacterial activity against Pseudomonas aeruginosa ATCC 9027 at 100 ug/ml by cup-plate method; settings: read-out: IZ
[4] = test system: Bacillus subtilis; assay: Antibacterial activity against Bacillus subtilis ATCC 6633 at 50 ug/ml by cup-plate method; settings: read-out: IZ
[5] = test system: Bacillus subtilis; assay: Antibacterial activity against Bacillus subtilis ATCC 6633 at 50 to 100 ug/ml by cup-plate method
[6] = test system: Bacillus subtilis; assay: Antibacterial activity against Bacillus subtilis ATCC 6633 at 100 ug/ml by cup-plate method; settings: read-out: IZ
[7] = test system: Staphylococcus aureus; assay: Antibacterial activity against Staphylococcus aureus ATCC 9144 at 50 to 100 ug/ml by cup-plate method
[8] = test system: Staphylococcus aureus; assay: Antibacterial activity against Staphylococcus aureus ATCC 9144 at 50 ug/ml by cup-plate method; settings: read-out: IZ
[9] = test system: Staphylococcus aureus; assay: Antibacterial activity against Staphylococcus aureus ATCC 9144 at 100 ug/ml by cup-plate method; settings: read-out: IZ
[10] = test system: Candida albicans; assay: Antifungal activity against Candida albicans ATCC 10231 at 100 ug/ml by cup-plate method; settings: read-out: IZ
[11] = test system: Candida albicans; assay: Antifungal activity against Candida albicans ATCC 10231 at 50 ug/ml by cup-plate method; settings: read-out: IZ
[12] = test system: Escherichia coli; assay: Antibacterial activity against Escherichia coli ATCC 25922 at 50 ug/ml by cup-plate method; settings: read-out: IZ
[13] = test system: Escherichia coli; assay: Antibacterial activity against Escherichia coli ATCC 25922 at 50 to 100 ug/ml by cup-plate method
[14] = test system: Escherichia coli; assay: Antibacterial activity against Escherichia coli ATCC 25922 at 100 ug/ml by cup-plate method; settings: read-out: IZ

Compound | zone of inhibition at 50 µg/mL [1] [mm] | Activity [2] [%] | zone of inhibition at 100 µg/mL [3] [mm] | zone of inhibition at 50 µg/mL [4] [mm] | Activity [5] [%] | zone of inhibition at 100 µg/mL [6] [mm] | Activity [7] [%] | zone of inhibition at 50 µg/mL [8] [mm] | zone of inhibition at 100 µg/mL [9] [mm] | zone of inhibition at 100 µg/mL [10] [mm] | zone of inhibition at 50 µg/mL [11] [mm] | zone of inhibition at 50 µg/mL [12] [mm] | Activity [13] [%] | zone of inhibition at 100 µg/mL [14] [mm]
COc1ccc(C2C(Cl)C(=O)N2c2ccc(-n3c(Cc4ccccc4Nc4c(Cl)cccc4Cl)nc4ccc(Br)cc4c3=O)cc2)cc1 (centres undefined) | 4 | 65.76 | 8 | 4 | 57.14 | 8 | 60.94 | 4 | 8 | 4 | 2 | 4 | 53.33 | 8
COc1cc(C2C(Cl)C(=O)N2c2ccc(-n3c(Cc4ccccc4Nc4c(Cl)cccc4Cl)nc4ccc(Br)cc4c3=O)cc2)cc(OC)c1OC (centres undefined) | 4 | 58.33 | 7 | 5 | 46.48 | 7 | 58.33 | 4 | 7 | 2 | 1 | 3 | 50 | 7
COc1ccc(C2C(Cl)C(=O)N2c2ccc(-n3c(Cc4ccccc4Nc4c(Cl)cccc4Cl)nc4ccc(Br)cc4c3=O)cc2)c(O)c1 (centres undefined) | 3 | 50.98 | 6 | 4 | 44.69 | 7 | 58.33 | 4 | 7 | 1 | 0 | 4 | 50 | 7
CN(C)c1ccc(C2C(Cl)C(=O)N2c2ccc(-n3c(Cc4ccccc4Nc4c(Cl)cccc4Cl)nc4ccc(Br)cc4c3=O)cc2)cc1 (centres undefined) | 0 | 0 | 0 | 0 | 0 | 0 | 0 | 0 | 0 | 1 | 0 | 0 | 0 | 0
COc1ccc(/C=N/c2ccc(-n3c(Cc4ccccc4Nc4c(Cl)cccc4Cl)nc4ccc(Br)cc4c3=O)cc2)c(O)c1 | 2 | 38.83 | 4 | 4 | 47.81 | 7 | 50 | 4 | 6 | 0 | 0 | 4 | 42.86 | 6
CN(C)c1ccc(/C=N/c2ccc(-n3c(Cc4ccccc4Nc4c(Cl)cccc4Cl)nc4ccc(Br)cc4c3=O)cc2)cc1 | 0 | 0 | 0 | 0 | 0 | 0 | 0 | 0 | 0 | 1 | 0 | 0 | 0 | 0
C[C@@H]1[C@H](O)[C@@H](C)/C=C/C=C/C=C/C=C/C=C/C=C/C=C/[C@H](O[C@@H]2O[C@H](C)[C@@H](O)[C@H](N)[C@@H]2O)C[C@@H]2O[C@](O)(C[C@@H](O)C[C@@H](O)[C@H](O)CC[C@@H](O)C[C@@H](O)CC(=O)O[C@H]1C)C[C@H](O)[C@H]2C(=O)O [AMPHOTERICIN B] | – | – | – | – | – | – | – | – | – | 9 | 4 | – | – | –
CC1(C)S[C@@H]2[C@H](NC(=O)Cc3ccccc3)C(=O)N2[C@H]1C(=O)O [PENICILLIN G] | 6 | – | 12 | 7 | – | 14 | – | 6 | 12 | – | – | 7 | – | 14
